Drawing on PubChem BioAssay (NCI), this text covers GI50 and TGI for seven compounds.

Common to all, as to test: NCI anticancer screen, dose series, 48 h
Experiment [1] deals with MDA-MB-231 breast.
Experiment [2] concerns TK-10 renal.
In experiment [3] the test system is DU-145 prostate.
Experiment [4] deals with UACC-257 melanoma.
The test system of experiment [5] is HOP-62 NSCLC.
The test system of experiment [6] is SK-OV-3 ovarian.
Experiment [7] relates to COLO 205 colon.
The subject of experiment [8] is SF-295 CNS.
For experiment [9], the system named is CAKI-1 renal.
For experiment [10], the system named is K-562 leukemia.

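Values below derive from 48-hour exposures of cells grown in 96-well plates, with endpoints linearly interpolated between the two concentrations bracketing the appropriate inhibition level. At the GI50, growth is halved. TGI marks complete inhibition of growth.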 Some results are limits rather than exact numbers.

With `CC(C)(C)NCC(O)COc1c(Br)c(Br)c(Br)c2c1OC(C)(C)C2` (stereo not drawn), the GI50 in experiment [1] is 1540 nM; in experiment [2], 2040 nM; in experiment [3], 1.51 µM; in [4], 1.99 µM; in [5], 1890 nM; in [6], 1830 nM. Further, the GI50 is 1550 nM in experiment [7], 2260 nM in experiment [8], 1710 nM in experiment [9] and 1540 nM in experiment [10]. For the same compound, the TGI in [1] amounted to 3.01 µM; in [2], 3.52 µM; in experiment [3], 2.84 µM; in [4] it was 3.91 µM; in experiment [5] it was 3.7 µM; in [6] it was 3.3 µM. Also, the TGI was 3.2 µM in experiment [7], 3.95 µM in experiment [8], 3.22 µM in experiment [9] and 2.94 µM in experiment [10].

On to `Nc1c(C(=O)c2cccc(C#CCN3CCCCC3)c2)cnn1-c1ccc(F)cc1`, for which the GI50 in experiment [1] was more than 25000 nM; in [2], more than 25000 nM; in experiment [3] it was more than 25 µM; in [4], more than 24.1 µM; in [5], more than 25000 nM; in [6], more than 25000 nM. The GI50 in experiment [7] was 24900 nM; in [8], more than 25000 nM; in experiment [9], more than 25000 nM; in experiment [10] it was 13100 nM. The TGI in [1], in experiment [2], in [3], in [4], in experiment [5] and in [6] was more than 25 µM throughout. Moreover, the TGI in experiment [7], in [8], in [9] and in experiment [10] was more than 25 µM throughout.

Consider `O=C(Nc1cccc2[nH]c(C(F)(F)F)nc12)c1cc(Cl)ccc1Cl`, for which the GI50 in experiment [1] was 2430 nM; in experiment [2] it was 4170 nM; in [3], 4.94 µM; in experiment [4], 3.34 µM; in [5], 2340 nM; in [6] it was 2210 nM. Moreover, the GI50 in experiment [7] was 1840 nM; in [8], 2230 nM; in experiment [9] it was 2700 nM; in experiment [10] it was 3710 nM. The TGI is 6.71 µM in experiment [1]; 36.2 µM in experiment [2]; more than 100 µM in experiment [3]; 12.3 µM in experiment [4]; 7.37 µM in experiment [5]; 6.06 µM in [6]. Besides, the TGI in [7] is 3.62 µM; in [8] it was 6.55 µM; in experiment [9] it was 31.3 µM; in experiment [10] it was more than 100 µM.

With `COc1ccc(-c2cnnn2-c2nonc2-n2cccc2)cc1OC`, the GI50 in experiment [1] is 5350 nM; in experiment [2], 22600 nM; in experiment [3] it was 7.95 µM; in experiment [4] it was 9.61 µM; in [5] it was 5210 nM; in experiment [6], 5180 nM. The GI50 is 3640 nM in experiment [7], 3940 nM in [8], 3390 nM in experiment [9] and 1370 nM in [10]. The TGI in experiment [1] is 69.4 µM; in experiment [2], more than 100 µM; in [3] it was more than 100 µM; in experiment [4], more than 100 µM; in experiment [5], more than 100 µM; in experiment [6] it was 29.8 µM. In addition, the TGI is 14.8 µM in [7], 44.6 µM in experiment [8], more than 100 µM in [9] and more than 100 µM in experiment [10].

For the compound `C=C(CN1CCc2c([nH]c3ccccc23)C1)c1ccc(C(=O)Nc2ccccc2N)cc1`, the GI50 in experiment [1] is 2740 nM; in experiment [2], 2600 nM; in [3], 3.85 µM; in experiment [4], 3.2 µM; in [5] it was 4080 nM; in experiment [6], 3140 nM. For the same compound, the GI50 in experiment [7] was 6350 nM; in experiment [8] it was 16600 nM; in experiment [9], 1670 nM; in [10] it was 1010 nM. The TGI amounted to 12.9 µM in experiment [1]; 9.58 µM in [2]; 13.9 µM in [3]; 11.6 µM in [4]; 20.8 µM in experiment [5]; 11.6 µM in experiment [6]. The TGI in experiment [7] is 20.9 µM; in experiment [8] it was 27.8 µM; in experiment [9], 8.25 µM; in experiment [10] it was 17 µM.

On to `COc1cc([C@@H]2c3cc4c(cc3[C@H](OC(C)=O)[C@H]3COC(=O)[C@@H]23)OCO4)cc(OC)c1OC`, for which the GI50 in experiment [1] is 388 nM; in experiment [3], 0.245 µM; in [5] it was 400 nM; in experiment [6], 334 nM; in [7], 272 nM; in [8], 296 nM. Moreover, the figures for the GI50 in [9] and in [10] were 537 nM and 253 nM, respectively. Further, the TGI was 3.44 µM in experiment [1]; more than 100 µM in experiment [2]; 0.649 µM in [3]; more than 100 µM in experiment [4]; more than 100 µM in experiment [5]; more than 100 µM in experiment [6]. The TGI is 0.678 µM in [7], more than 100 µM in experiment [8], more than 100 µM in experiment [9] and more than 100 µM in experiment [10].

For the compound `CC(=O)c1ccc2c(c1)N(CCCN1CCN(CCO)CC1)c1ccccc1S2`, the GI50 in experiment [1] is 1960 nM; in experiment [2] it was 1690 nM; in experiment [3] it was 4.55 µM; in experiment [4], 1.85 µM; in experiment [5], 1990 nM; in [6] it was 2840 nM. Besides, the GI50 in [7] was 1740 nM; in experiment [8] it was 2150 nM; in experiment [9] it was 1730 nM; in [10] it was 2520 nM. For the same compound, the TGI stood at 4.51 µM in experiment [1]; 3.6 µM in experiment [2]; 15.8 µM in experiment [3]; 3.51 µM in [4]; 4.77 µM in experiment [5]; 10.1 µM in experiment [6]. Further, the TGI is 3.5 µM in experiment [7], 4.26 µM in [8], 4.22 µM in [9] and more than 23 µM in [10].
